The text below walks through data of patent US9273028B2, “Heterocyclic tyrosine kinase inhibitors” (Biogen MA Inc., priority 2010, dated 2016).

For orientation: IC50 means the concentration needed to halve the response being measured. Low readings indicate greater potency in that assay, high ones weaker potency in that assay.

Assay type in all cases: biochemical
For one assay, the target named is T1, Lck (Homo sapiens, UniProt P06239).
T1 construct: purchased Carna Bioscience 08-170
Nature of the assay: Lck kinase selectivity assay (Example 142 procedure, Table 3 modifications). The conditions noted are these: ATP 5 μM. As to the method: (§1) The purpose of the Tec in vitro assay is to determine compound potency against Tec through the measurement of IC50. Compound inhibition is measured after monitoring the amount of phosphorylation of a fluorescein-labeled polyGT peptide (Invitrogen PV3610) in the presence of active Tec enzyme (Carna Biosciences 08-182), ATP, and inhibitor. The Tec kinase reaction was done in a black 96 well plate (costar 3694). For a typical assay, a 29 μL aliquot of a ATP/peptide master mix (final concentration; ATP 25 μM, polyGT 100 nM) in kinase buffer (10 mM Tris-HCl pH 7.5, 10 mM MgCl2, 200 μM Na3PO4, 5 mM DTT, 0.01% Triton X-100, and 0.2 mg/ml casein) is added to each well. Next, 1 μL of a 3-fold, 50× compound titration in 100% DMSO solvent is added, followed by adding 20 uL of Tec enzyme mix in 1× kinase buffer (with a final concentration of 0.125 nM). The assay is incubated for 15 minutes before being stopped with 5 μl, of a 220 mM EDTA solution. Aliquots (5 μL) of the kinase reaction are transferred to a low volume white 384 well plate (Corning 3674), and 5 μL of a 2× detection buffer (Invitrogen PV3574, with 2 nM Tb-PY20 antibody, Invitrogen PV3552) is added. The plate is covered and incubated for 45 minutes at room temperature. Time resolved fluorescence (TRF) on Molecular Devices M5 (332 nm excitation; 488 nm emission; 518 nm fluorescein emission) is measured.
(§2) Using the procedure described in Example 142, with the modifications shown in Table 3, selectivity for Itk, Txk, and Lck was measured.

In a further assay the target is T2, Txk (Homo sapiens, UniProt P42681).
T2 construct: purchased Carna Bioscience 08-183
T2 sequence (P42681 1-527): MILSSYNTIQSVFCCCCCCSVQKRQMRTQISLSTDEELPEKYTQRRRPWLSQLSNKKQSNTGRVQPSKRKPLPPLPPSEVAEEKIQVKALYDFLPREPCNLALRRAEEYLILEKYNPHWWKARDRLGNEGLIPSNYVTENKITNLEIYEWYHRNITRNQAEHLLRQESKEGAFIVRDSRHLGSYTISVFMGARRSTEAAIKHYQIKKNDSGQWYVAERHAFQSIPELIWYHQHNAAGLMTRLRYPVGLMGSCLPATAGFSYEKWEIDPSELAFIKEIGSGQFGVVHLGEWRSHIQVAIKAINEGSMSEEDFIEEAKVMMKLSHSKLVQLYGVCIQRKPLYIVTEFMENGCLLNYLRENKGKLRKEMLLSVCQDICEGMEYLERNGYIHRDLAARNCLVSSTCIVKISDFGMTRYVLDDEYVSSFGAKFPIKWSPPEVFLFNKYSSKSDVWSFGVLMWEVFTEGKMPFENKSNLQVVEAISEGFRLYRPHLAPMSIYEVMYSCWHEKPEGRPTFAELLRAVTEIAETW
The assay is described as follows: Txk kinase selectivity assay (Example 142 procedure, Table 3 modifications). The conditions noted are these: ATP 100 μM. On the procedure: as §1, §2

For another assay, the target named is T3, Tec (Homo sapiens, UniProt P42680).
T3 construct: purchased Carna Biosciences 08-182
T3 sequence (P42680 1-631): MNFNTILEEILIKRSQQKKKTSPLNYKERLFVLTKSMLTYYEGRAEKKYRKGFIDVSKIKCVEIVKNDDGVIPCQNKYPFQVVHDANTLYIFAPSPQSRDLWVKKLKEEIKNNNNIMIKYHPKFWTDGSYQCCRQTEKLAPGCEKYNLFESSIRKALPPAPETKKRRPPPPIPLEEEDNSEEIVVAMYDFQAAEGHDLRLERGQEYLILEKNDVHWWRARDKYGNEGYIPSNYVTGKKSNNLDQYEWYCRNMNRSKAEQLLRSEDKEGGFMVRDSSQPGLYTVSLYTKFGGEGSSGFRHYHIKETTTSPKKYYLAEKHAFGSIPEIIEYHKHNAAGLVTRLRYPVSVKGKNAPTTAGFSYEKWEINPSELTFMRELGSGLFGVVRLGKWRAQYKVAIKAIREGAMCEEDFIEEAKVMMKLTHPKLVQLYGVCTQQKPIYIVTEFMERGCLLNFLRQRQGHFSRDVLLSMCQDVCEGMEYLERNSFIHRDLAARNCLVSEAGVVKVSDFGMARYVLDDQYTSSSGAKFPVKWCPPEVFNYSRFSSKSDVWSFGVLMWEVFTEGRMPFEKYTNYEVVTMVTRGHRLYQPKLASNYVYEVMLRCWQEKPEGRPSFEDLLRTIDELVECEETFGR
Nature of the assay: In vitro Tec kinase selectivity assay (Tec-POLYGT-LS). The conditions noted are these: ATP 25 μM. As to the method: In Vitro Tec Kinase Selectivity Assay
as §1

In another assay the target is T4, Itk (Homo sapiens, UniProt Q08881).
T4 construct: purchased Carna Bioscience 08-181
T4 sequence (Q08881 1-620): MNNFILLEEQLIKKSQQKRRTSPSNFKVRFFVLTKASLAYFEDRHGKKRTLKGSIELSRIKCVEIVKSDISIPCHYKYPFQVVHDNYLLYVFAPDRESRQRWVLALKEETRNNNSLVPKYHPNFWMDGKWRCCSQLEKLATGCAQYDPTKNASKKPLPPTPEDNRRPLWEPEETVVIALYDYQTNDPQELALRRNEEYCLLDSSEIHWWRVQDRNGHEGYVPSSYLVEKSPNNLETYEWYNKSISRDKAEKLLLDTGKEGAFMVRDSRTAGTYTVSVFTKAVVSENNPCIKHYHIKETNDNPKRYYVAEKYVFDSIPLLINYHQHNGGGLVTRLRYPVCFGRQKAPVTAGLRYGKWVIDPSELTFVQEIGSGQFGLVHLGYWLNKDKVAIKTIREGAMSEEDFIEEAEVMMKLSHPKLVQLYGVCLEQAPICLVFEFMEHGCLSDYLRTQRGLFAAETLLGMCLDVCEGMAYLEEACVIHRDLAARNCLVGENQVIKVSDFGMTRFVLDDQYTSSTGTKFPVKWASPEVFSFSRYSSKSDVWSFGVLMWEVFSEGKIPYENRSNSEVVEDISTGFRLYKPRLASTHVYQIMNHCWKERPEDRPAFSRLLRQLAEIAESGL
Nature of the assay: Itk kinase selectivity assay (Example 142 procedure, Table 3 modifications). Conditions: ATP 10 μM. As to the method:
as §1, §2

The target in the next assay is T5, BTK (Homo sapiens, UniProt Q06187).
T5 construct: purchased Upstate 14-552
Nature of the assay: In vitro BTK kinase assay (BTK-POLYGAT-LS). The conditions noted are these: IC50 (10 uM ATP). A digest of the protocol:
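Poly-GAT peptide at 100 nM with 10 μM ATP (final) in pH 7.5 Tris buffer containing MgCl2, DTT, Triton X-100 and 0.2 mg/ml casein.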

Structures are written as SMILES. Where only a bound is given, the exact number is not on record here.

T1 sequence (P06239 whole entry): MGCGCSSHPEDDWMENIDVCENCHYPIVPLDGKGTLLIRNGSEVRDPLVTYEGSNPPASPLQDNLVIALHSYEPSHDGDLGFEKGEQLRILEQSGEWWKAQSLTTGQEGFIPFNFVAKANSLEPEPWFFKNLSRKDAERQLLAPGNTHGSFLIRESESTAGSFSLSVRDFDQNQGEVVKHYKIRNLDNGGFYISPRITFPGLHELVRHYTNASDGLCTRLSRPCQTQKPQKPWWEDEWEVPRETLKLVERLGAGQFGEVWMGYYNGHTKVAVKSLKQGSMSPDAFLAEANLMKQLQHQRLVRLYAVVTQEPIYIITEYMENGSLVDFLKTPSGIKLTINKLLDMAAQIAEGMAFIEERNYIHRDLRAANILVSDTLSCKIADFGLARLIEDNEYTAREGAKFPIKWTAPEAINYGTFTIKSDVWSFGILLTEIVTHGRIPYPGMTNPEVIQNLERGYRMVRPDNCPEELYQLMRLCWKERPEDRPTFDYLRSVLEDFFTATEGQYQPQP
T5 sequence (Q06187 whole entry): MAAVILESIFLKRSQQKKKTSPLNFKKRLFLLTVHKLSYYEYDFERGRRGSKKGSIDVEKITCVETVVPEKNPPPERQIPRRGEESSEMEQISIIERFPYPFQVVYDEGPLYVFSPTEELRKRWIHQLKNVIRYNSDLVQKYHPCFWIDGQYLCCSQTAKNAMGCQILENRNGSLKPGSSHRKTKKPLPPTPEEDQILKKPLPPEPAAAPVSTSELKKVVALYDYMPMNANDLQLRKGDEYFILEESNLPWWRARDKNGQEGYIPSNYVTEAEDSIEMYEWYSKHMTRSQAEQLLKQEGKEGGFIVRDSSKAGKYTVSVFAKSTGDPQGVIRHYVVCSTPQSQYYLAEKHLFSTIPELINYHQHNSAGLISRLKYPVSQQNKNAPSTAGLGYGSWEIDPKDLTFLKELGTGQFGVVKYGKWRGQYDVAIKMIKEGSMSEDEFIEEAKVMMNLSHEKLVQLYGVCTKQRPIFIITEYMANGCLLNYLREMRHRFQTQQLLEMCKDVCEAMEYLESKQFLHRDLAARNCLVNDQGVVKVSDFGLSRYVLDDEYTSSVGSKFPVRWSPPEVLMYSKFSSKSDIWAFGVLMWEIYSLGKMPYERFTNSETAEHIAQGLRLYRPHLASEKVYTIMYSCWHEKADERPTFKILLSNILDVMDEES

With `CCC[C@@H](Nc1cc(F)cc(Cl)c1)C(=O)N1CCC2CCN(c3ncnc4[nH]ccc34)C2C1` (stereo partly shown) [Compound 100], the IC50 was 100 to 999 nM on Lck; 1000 to 10000 nM against Txk; 100 to 999 nM at Tec; 100 to 999 nM at Itk; under 100 nM at BTK.

As for `O=C(CNc1cc(Cl)cc(Cl)c1)N1CCC[C@@H](Nc2ncnc3[nH]ncc23)C1` [Compound 222], the IC50 on Lck is 1000 to 10000 nM; against Txk, over 10000 nM; at Tec it was 100 to 999 nM; at Itk, 1000 to 10000 nM; at BTK it was under 100 nM.
